{"source": "patent US20190125715A1", "about": "“CDDO-Me AS A THERAPY FOR LUPUS” (priority 2014, published 2019)", "key": {"[1]": {"conditions": "mouse, in vivo", "source_text": "Since this was a relatively long-term study, and since CDDO-Me cripples multiple signaling axes, one concern can be potential side effects. After 60 days of drug administration (either in the preventive or treatment experiment), body weights of mice from both the CDDO-Me group and the placebo group were similar. […] In addition, liver function was monitored by assaying aspartate aminotransferase (AST); however, there were no significant changes in the CDDO-Me-treated group (AST activity 75.7±6.5 units/liter) compared to the placebo group (74.0±5.8 units/liter)."}, "[2]": {"test_system": "B6.Sle1.Sle3 mice", "assay": "Preventive experiment in B6.Sle1.Sle3 mice: spleen weight, splenic cellularity and lymphocyte subsets by flow cytometry", "type": "in vivo, mouse", "parameters": "Splenic B cells: B220+, AA4.1+ (mature) / Splenic B cells: Follicular B cells / Splenic B cells: Marginal zone B cells / Splenic B cells: B1a cells / Splenic B cells: B220+, AA4.1+ (immature) / Splenic B cells: T1 immature / Splenic B cells: T2 immature / Splenic B cells: T3 immature / Splenic T cells: CD4 T cells / Splenic T cells: CD8 T cells: unit not given here", "experimental": "Flow cytometric analysis and antibodies: Splenocytes were depleted of red blood cells using a lysis buffer (containing 0.15M NH4Cl, 10 mM KHCO3, and 0.1 mM Na2EDTA, pH 7.2), and single-cell suspensions were prepared for flow cytometric analysis. Flow cytometric analysis was performed as described previously (17).\nIn vivo experiments: In the first preventive experiment, CDDO-Me was diluted in sesame oil. Two-month-old B6.Sle1.Sle3 mice (n=20) received CDDO-Me at a final dose of 3 mg/kg or vehicle alone (i.e., placebo), by oral gavage 3 times per week for a period of 2 months. In a confirmatory preventive study, 2-month-old MRL/lpr mice (n=8 per group) were orally administered CDDO-Me (3 mg/kg), sesame oil, water, or dexamethasone (1 mg/kg) 3 times a week for 2 months. Serum and 24-hour urine samples were obtained on days 0, 14, and 60. All serum samples were subjected to ELISA for autoantibodies, and urine samples were assayed for total protein as previously described (17,18). On day 60, when mice were killed, the cellular composition of the spleen and lymph nodes was determined by flow cytometry, and the kidneys were examined for pathology, as described below. In addition, the expression of various signaling molecules in the spleens and kidneys of the treated mice was assayed by Western blotting, as described above. In the treatment experiment, 7-month-old NZM2410 mice with proteinuria (n=4-7 per group) were treated with CDDO-Me (3 mg/kg) or placebo by oral gavage 5 times per week for a period of 2 months. Proteinuria, autoantibody production, spleen weight, and survival rates were assessed.\nTo address this, 2-month-old female B6.Sle1.Sle3 mice were treated for 60 days with CDDO-Me or placebo, and then spleen size and cellularity were assessed in both groups."}, "[3]": {"conditions": "absolute cell number in spleen, 4-month-old mice, 60 days treatment, mean ± SEM, n=10"}}, "data": [{"smiles": "COC(=O)[C@]12CCC(C)(C)C[C@H]1[C@H]1C(=O)C=C3[C@@]4(C)C=C(C#N)C(=O)C(C)(C)[C@@H]4CC[C@@]3(C)[C@]1(C)CC2", "note": "[CDDO-Me, methyl-2-cyano-3,12-dioxooleana-1,9-dien-28-oate]", "values": [{"measurement": "AST activity (liver function)", "setting": "[1]", "value": "75.7±6.5", "unit": "units/liter"}, {"measurement": "all blood cell counts (WBC, RBC, hemoglobin, hematocrit, MCV, MCH, MCHC, RDW, MPV, neutrophils, lymphocytes, eosinophils) versus placebo group", "setting": "[1]", "value": "remained similar"}, {"measurement": "platelet counts versus placebo group", "setting": "[1]", "value": "comparable"}, {"measurement": "Total spleen cell count", "setting": "[2]; 4-month-old B6.Sle1.Sle3 mice after 60 days CDDO-Me 3 mg/kg oral gavage 3 times per week, mean ± SEM, n=10", "value": "89.1 ± 2.3 10^6"}, {"measurement": "percentage of CD8+ T cells among splenic T cells", "setting": "[2]; 60 days treatment, mean±SEM, placebo 6.8±1.1%, P=0.023", "value": "9.73±0.4", "unit": "%"}, {"measurement": "percentage of CD4+ T cells among splenic T cells", "setting": "[2]; 60 days treatment, mean±SEM, placebo 15.1±1.2%, P=0.021", "value": "12.1±0.35", "unit": "%"}, {"measurement": "B cell activation, surface CD86 expression", "setting": "[2]; 60 days treatment, placebo 8.72±0.45, P<0.002", "value": "6.48±0.42 mean fluorescence intensity units"}, {"measurement": "absolute number of total splenic CD4+ T cells", "setting": "[2]; 60 days treatment, placebo 39.0±2.0 million, P<0.0001", "value": "18.7±3.8", "unit": "million"}, {"measurement": "Splenic B cells: B1a cells", "setting": "[2]; [3]", "value": "4.0 ± 0.3"}, {"measurement": "Splenic B cells: B220+, AA4.1+ (immature)", "setting": "[2]; [3]", "value": "10.4 ± 1.1"}, {"measurement": "Splenic B cells: B220+, AA4.1+ (mature)", "setting": "[2]; [3]", "value": "45.3 ± 3.2"}, {"measurement": "Splenic B cells: Follicular B cells", "setting": "[2]; [3]", "value": "30.9 ± 1.6"}, {"measurement": "Splenic B cells: Marginal zone B cells", "setting": "[2]; [3]", "value": "4.0 ± 0.2"}, {"measurement": "Splenic B cells: T1 immature", "setting": "[2]; [3]", "value": "1.0 ± 0.1"}, {"measurement": "Splenic B cells: T2 immature", "setting": "[2]; [3]", "value": "3.1 ± 0.2"}, {"measurement": "Splenic B cells: T3 immature", "setting": "[2]; [3]", "value": "4.0 ± 0.2"}, {"measurement": "Splenic T cells: CD4 T cells", "setting": "[2]; [3]", "value": "18.7 ± 3.8"}, {"measurement": "Splenic T cells: CD8 T cells", "setting": "[2]; [3]", "value": "8.6 ± 2.4"}, {"measurement": "Splenic T cells: CD69+/CD4 T cells", "setting": "[2]; [3]", "value": "5.1 ± 0.6"}, {"measurement": "Splenic T cells: CD69+/CD8 T cells", "setting": "[2]; [3]", "value": "0.6 ± 0.1"}, {"measurement": "decrease of overall spleen weights compared to the placebo-treated group", "setting": "[2]; female B6.Sle1.Sle3 mice treated for 60 days", "value": "~50", "unit": "%"}]}]}
